target: VPS34 (Homo sapiens (Human), UniProt Q8NEB9); assay: Biochemical Assay for VPS34 (ADP-Glo kinase activity assay); conditions: 25 nM VPS34, 1 mM ATP, 1-hour incubation at 37° C.; read-out: VPS34 (Inhibition of biochemical activity of VPS34, IC50)
Procedure: Activity of VPS34 kinase was determined using an ADP-Glo kinase activity assay (Promega Corp). Assays were conducted in 384-well plates (5 μL assay volume) using 25 nM VPS34 (ThermoFisher Scientific), […] PI:3PS Lipid Kinase Substrate (Promega Corp.), and 1 mM ATP in kinase buffer. Inhibition of VPS34 was measured by adding serial diluted test compound (final assay concentration of 0.1% DMSO) followed by a 1-hour incubation at 37° C. ADP-Glo reagent was then added ([…]) followed by a 40 min incubation at rt. Kinase detection reagent was then added ([…]) and followed by a 60 min incubation at rt. Luminescence was then detected. The RLU at each compound concentration of was converted to percent inhibition using controls (i.e., reaction with no test compound and reaction with a known inhibitor) and IC50 values were calculated by fitting a four-parameter sigmoidal curve to the data using GeneData Screener software.
VPS34 Protein Sequence (Full Length with GST Tag)

VPS34, sequence (Q8NEB9 other isoform, or with tags, fused parts or gaps): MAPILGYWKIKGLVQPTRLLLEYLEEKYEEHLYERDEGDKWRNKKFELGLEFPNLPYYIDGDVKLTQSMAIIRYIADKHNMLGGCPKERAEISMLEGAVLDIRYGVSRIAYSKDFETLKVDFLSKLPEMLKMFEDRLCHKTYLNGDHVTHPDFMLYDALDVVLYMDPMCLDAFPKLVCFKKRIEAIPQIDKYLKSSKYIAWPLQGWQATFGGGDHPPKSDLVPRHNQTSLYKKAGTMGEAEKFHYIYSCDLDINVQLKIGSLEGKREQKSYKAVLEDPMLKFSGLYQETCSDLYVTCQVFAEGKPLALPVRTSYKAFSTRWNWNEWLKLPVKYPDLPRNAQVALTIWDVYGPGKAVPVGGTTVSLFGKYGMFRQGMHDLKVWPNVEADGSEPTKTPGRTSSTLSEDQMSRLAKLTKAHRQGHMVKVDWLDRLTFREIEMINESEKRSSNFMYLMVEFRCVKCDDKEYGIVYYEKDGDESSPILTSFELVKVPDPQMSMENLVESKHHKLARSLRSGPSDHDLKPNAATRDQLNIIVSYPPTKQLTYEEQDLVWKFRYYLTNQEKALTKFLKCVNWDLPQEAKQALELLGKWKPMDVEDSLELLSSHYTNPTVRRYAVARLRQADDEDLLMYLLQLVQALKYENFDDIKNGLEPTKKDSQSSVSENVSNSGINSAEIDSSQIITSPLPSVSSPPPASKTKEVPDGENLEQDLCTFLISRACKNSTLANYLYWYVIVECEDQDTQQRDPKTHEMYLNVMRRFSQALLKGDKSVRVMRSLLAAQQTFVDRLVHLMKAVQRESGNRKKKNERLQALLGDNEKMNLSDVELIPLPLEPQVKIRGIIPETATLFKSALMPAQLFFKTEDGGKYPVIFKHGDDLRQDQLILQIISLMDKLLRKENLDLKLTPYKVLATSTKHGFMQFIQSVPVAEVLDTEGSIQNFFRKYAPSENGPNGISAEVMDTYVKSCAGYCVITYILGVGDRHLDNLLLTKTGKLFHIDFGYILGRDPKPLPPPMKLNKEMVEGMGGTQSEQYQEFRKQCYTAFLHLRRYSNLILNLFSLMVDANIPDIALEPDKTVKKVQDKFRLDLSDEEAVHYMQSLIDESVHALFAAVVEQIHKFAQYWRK

IC50 [µM]	SMILES
≤ 0.1	Cc1cncc(Nc2cc(-c3cc(N4CCCC[C@@H]4C(F)(F)F)[nH]c(=O)c3)c(C)cn2)n1 [Example 2, (R)-5′-methyl-2′-((6-methylpyrazin-2-yl)amino)-6-(2-(trifluoromethyl)piperidin-1-yl)-[4,4′-bipyridin]-2(1H)-one]
0.1 to 0.5	Cc1cnc(NC(=O)CC2CN(C)C2)cc1-c1cc(N2CCCC[C@@H]2C(F)(F)F)[nH]c(=O)c1 [Example 3, (R)-N-(5-methyl-2′-oxo-6′-(2-(trifluoromethyl)piperidin-1-yl)-1′,2′-dihydro-[4,4′-bipyridin]-2-yl)-2-(1-methylazetidin-3-yl)acetamide]
0.1 to 0.5	COC(=O)Nc1ncc(C)c(-c2cc(N3CCCC[C@@H]3C(F)(F)F)[nH]c(=O)c2)n1 [Example 8]
0.1 to 0.5	CC(=O)Nc1cc(-c2cc(-c3cccnc3C(F)(F)F)[nH]c(=O)c2)c(C)cn1 [Example 9]
1 to 10	COC(=O)Nc1cc(-c2cc(-c3cccnc3C(F)(F)F)[nH]c(=O)c2)c(C2CC2)cn1 [Example 11]
1 to 10	Cc1cnccc1-c1cc(N2CCCC[C@@H]2C(F)(F)F)[nH]c(=O)c1 [Example 13]
1 to 10	Cc1cnc(NC(=O)CN(C)C)cc1-c1cc(N2CCCC[C@@H]2C(F)(F)F)[nH]c(=O)c1 [Example 19]
0.5 to 1	Cc1cnc(NC(=O)CC2CN(C)CC2(F)F)cc1-c1cc(N2CCCC[C@@H]2C(F)(F)F)[nH]c(=O)c1 (some centres unmarked) [Example 21]
1 to 10	Cc1cnc(N)cc1-c1cc(N2CCCC[C@@H]2C(F)(F)F)[nH]c(=O)c1 [Example 23]
0.5 to 1	Cc1cnc(Nc2cnn(C)c2)cc1-c1cc(N2CCCC[C@@H]2C(F)(F)F)[nH]c(=O)c1 [Example 29]
0.1 to 0.5	Cc1cnc(NC(=O)OC2CC2)cc1-c1cc(N2CCCC[C@@H]2C(F)(F)F)[nH]c(=O)c1 [Example 30]
0.5 to 1	Cc1cnc(NC(=O)c2cnn(C)c2)cc1-c1cc(N2CCCC[C@@H]2C(F)(F)F)[nH]c(=O)c1 [Example 31]
0.1 to 0.5	COC(=O)Nc1cc(-c2cc(N3CCN(S(=O)(=O)CCN(C)C)C[C@@H]3C(F)(F)F)[nH]c(=O)c2)c(C)cn1 [Example 32]
0.5 to 1	Cc1cnc(Nc2cnn(C)c2)cc1-c1cc(-c2cccnc2C(F)(F)F)[nH]c(=O)c1 [Example 33]
≤ 0.1	COC(=O)Nc1cc(-c2cc(N3CCN(S(=O)(=O)CCN(C)C)C[C@@H]3C)[nH]c(=O)c2)c(C)cn1 [Example 34]
0.5 to 1	CNCCC(=O)Nc1cc(-c2cc(N3CCCC[C@@H]3C(F)(F)F)[nH]c(=O)c2)c(C)cn1 [Example 35]
1 to 10	COC(=O)Nc1cc(-c2cc(N3CCOC[C@H]3C(F)(F)F)[nH]c(=O)c2)c(C)cn1 [Example 36]
≤ 0.1	COC(=O)Nc1cc(-c2cc(N3CCOC[C@@H]3C(F)(F)F)[nH]c(=O)c2)c(C)cn1 [Example 37]
0.5 to 1	Cc1cnc(Nc2cn(C)nn2)cc1-c1cc(N2CCCC[C@@H]2C(F)(F)F)[nH]c(=O)c1 [Example 39]
0.5 to 1	Cc1cnnc(Nc2cc(-c3cc(N4CCCC[C@@H]4C(F)(F)F)[nH]c(=O)c3)c(C)cn2)c1 [Example 40]
0.1 to 0.5	Cc1cnc(Nc2cnn(C)n2)cc1-c1cc(N2CCCC[C@@H]2C(F)(F)F)[nH]c(=O)c1 [Example 41]
≤ 0.1	Cc1cnc(Nc2ncn(C)n2)cc1-c1cc(N2CCCC[C@@H]2C(F)(F)F)[nH]c(=O)c1 [Example 42]

IC50 [µM]	SMILES
0.1 to 0.5	Cc1cnc(Nc2nnn(C)n2)cc1-c1cc(N2CCCC[C@@H]2C(F)(F)F)[nH]c(=O)c1 [Example 43]
≤ 0.1	Cc1ccc(Nc2cc(-c3cc(N4CCCC[C@@H]4C(F)(F)F)[nH]c(=O)c3)c(C)cn2)nn1 [Example 44]
0.5 to 1	Cc1cnc(NC(=O)c2cn[nH]c2)cc1-c1cc(N2CCCC[C@@H]2C(F)(F)F)[nH]c(=O)c1 [Example 47]
0.1 to 0.5	Cc1cnc(NC(=O)C2CC2)cc1-c1cc(-c2cnccc2C(F)(F)F)[nH]c(=O)c1 [Example 48]
1 to 10	COC(=O)Nc1cc(-c2cc(-c3cccnc3C(F)(F)F)[nH]c(=O)c2)c(CF)cn1 [Example 50]
1 to 10	COC(=O)Nc1cc(-c2cc(-c3cccnc3C(F)(F)F)[nH]c(=O)c2)c(Cl)cn1 [Example 51]
1 to 10	CNC(=O)Nc1cc(-c2cc(-c3cccnc3C(F)(F)F)[nH]c(=O)c2)c(C)cn1 [Example 52]
1 to 10	CNc1cc(-c2cc(N3CCCC[C@@H]3C(F)(F)F)[nH]c(=O)c2)c(C)cn1 [Example 53]
1 to 10	Cc1cnc(NC(=O)OC2CNC2)cc1-c1cc(N2CCCC[C@@H]2C(F)(F)F)[nH]c(=O)c1 [Example 54]
1 to 10	Cc1cnc(N)cc1-c1cc(-c2cccnc2C(F)(F)F)[nH]c(=O)c1 [Example 55]
1 to 10	Cc1cnc(NC2COC2)cc1-c1cc(N2CCCC[C@@H]2C(F)(F)F)[nH]c(=O)c1 [Example 56]
1 to 10	Cc1cnc(NC(=O)[C@H]2CCN(C)C2)cc1-c1cc(N2CCCC[C@@H]2C(F)(F)F)[nH]c(=O)c1 [Example 57]
1 to 10	CNCCC(=O)N1CCN(c2cc(-c3cc(NC(=O)OC)ncc3C)cc(=O)[nH]2)[C@@H](C(F)(F)F)C1 [Example 58]
1 to 10	Cc1cnc(NC(=O)NC2CC2)cc1-c1cc(N2CCCC[C@@H]2C(F)(F)F)[nH]c(=O)c1 [Example 59]
1 to 10	CNCCC(=O)N1CCN(c2cc(-c3cc(NC(=O)OC)ncc3C)cc(=O)[nH]2)[C@@H](C)C1 [Example 60]
1 to 10	COC(=O)Nc1cc(-c2cc(N3CCN(C(=O)CCN(C)C)C[C@@H]3C(F)(F)F)[nH]c(=O)c2)c(C)cn1 [Example 61]
1 to 10	Cc1cnc(NC(=O)C2COC2)cc1-c1cc(N2CCCC[C@@H]2C(F)(F)F)[nH]c(=O)c1 [Example 62]
1 to 10	COC(=O)Nc1cc(-c2cc(N3CCN(C(=O)CCN(C)C)C[C@@H]3C)[nH]c(=O)c2)c(C)cn1 [Example 63]
1 to 10	CNCC(=O)Nc1cc(-c2cc(-c3cccnc3C(F)(F)F)[nH]c(=O)c2)c(C)cn1 [Example 64]
1 to 10	Cc1cnc(NC(=O)[C@@H]2CCN(C)C2)cc1-c1cc(N2CCCC[C@@H]2C(F)(F)F)[nH]c(=O)c1 [Example 65]
0.1 to 0.5	CNCCS(=O)(=O)Nc1ccc(-c2cc(-c3cc(NC(=O)C4CC4)ncc3C)cc(=O)[nH]2)c(C)c1 [Example 66]
1 to 10	COC[C@H]1CCCN1c1cc(-c2cc(NC(=O)OC)ncc2C)cc(=O)[nH]1 [Example 67]

IC50 [µM]	SMILES
1 to 10	Cc1cnc(NC(=O)c2cnn(C)c2)cc1-c1cc(-c2cccnc2C(F)(F)F)[nH]c(=O)c1 [Example 68]
1 to 10	Cc1cnc(Nc2cnn(CCN(C)C)c2)cc1-c1cc(N2CCCC[C@@H]2C(F)(F)F)[nH]c(=O)c1 [Example 69]
1 to 10	COC(=O)Nc1cc(-c2cc(-c3cccnc3C3CC3)[nH]c(=O)c2)c(C)cn1 [Example 70]
1 to 10	Cc1cnc(Nc2ccn(C)n2)cc1-c1cc(N2CCCC[C@@H]2C(F)(F)F)[nH]c(=O)c1 [Example 71]
≤ 0.1	Cc1ccnc(Nc2cc(-c3cc(N4CCCC[C@@H]4C(F)(F)F)[nH]c(=O)c3)c(C)cn2)n1 [Example 72]
1 to 10	CNCCC(=O)Nc1cc(-c2cc(-c3cccnc3C(F)(F)F)[nH]c(=O)c2)c(C)cn1 [Example 73]
1 to 10	Cc1cnc(NC(=O)c2cnn(C3CNC3)c2)cc1-c1cc(N2CCCC[C@@H]2C(F)(F)F)[nH]c(=O)c1 [Example 74]
0.1 to 0.5	CCS(=O)(=O)N1CCN(c2cc(-c3cc(NC(=O)C4CC4)ncc3C)cc(=O)[nH]2)[C@@H](C)C1 [Example 76]
0.1 to 0.5	COC(=O)Nc1cc(-c2cc(-c3ccncc3C(F)(F)F)[nH]c(=O)c2)c(C)cn1 [Example 79]
1 to 10	Cc1nc(Nc2cc(-c3cc(N4CCCC[C@@H]4C(F)(F)F)[nH]c(=O)c3)c(C)cn2)no1 [Example 80]
≤ 0.1	Cc1cnc(NC(=O)C2CC2)cc1-c1cc(N2CCN(S(=O)(=O)C3CC3)C[C@@H]2C)[nH]c(=O)c1 [Example 82]
0.1 to 0.5	COCCS(=O)(=O)N1CCN(c2cc(-c3cc(NC(=O)C4CC4)ncc3C)cc(=O)[nH]2)[C@@H](C)C1 [Example 83]
≤ 0.1	Cc1cnc(NC(=O)C2CC2)cc1-c1cc(N2CCN(S(=O)(=O)c3cnn(C)c3)C[C@@H]2C)[nH]c(=O)c1 [Example 84]
≤ 0.1	Cc1cnc(NC(=O)C2CC2)cc1-c1cc(N2CCN(S(=O)(=O)CC3CC3)C[C@@H]2C)[nH]c(=O)c1 [Example 85]
0.1 to 0.5	Cc1cnc(NC(=O)C2CC2)cc1-c1cc(N2CCN(S(=O)(=O)c3cc(F)ccc3F)C[C@@H]2C)[nH]c(=O)c1 [Example 86]
0.1 to 0.5	COc1ccc(S(=O)(=O)N2CCN(c3cc(-c4cc(NC(=O)C5CC5)ncc4C)cc(=O)[nH]3)[C@@H](C)C2)cc1 [Example 87]
1 to 10	Cc1cnc(NC(=O)C2CC2)cc1-c1cc(N2CCN(C(=O)c3ccc(F)cc3)C[C@@H]2C)[nH]c(=O)c1 [Example 88]
0.5 to 1	Cc1cnc(NC(=O)C2CC2)cc1-c1cc(N2CCN(C(=O)c3cnn(C)c3)C[C@@H]2C)[nH]c(=O)c1 [Example 89]
1 to 10	COc1ccc(C(=O)N2CCN(c3cc(-c4cc(NC(=O)C5CC5)ncc4C)cc(=O)[nH]3)[C@@H](C)C2)cc1 [Example 92]
1 to 10	Cc1cnc(NC(=O)C2CC2)cc1-c1cc(N2CCN(C(=O)CC3CC3)C[C@@H]2C)[nH]c(=O)c1 [Example 93]
1 to 10	Cc1cnc(NC(=O)C2CC2)cc1-c1cc(N2CCN(C(=O)c3cccnc3)C[C@@H]2C)[nH]c(=O)c1 [Example 94]
